The record followed here is patent publication US10323036B2 (Nimbus Lakshmi, Inc., priority 2016, dated 2019).

As usually defined, the Kd is a measure of binding affinity in units of concentration.

The target of the assay is human TYK2 (JH2domain-pseudokinase) (Homo sapiens (Human), UniProt P29597). Kind of assay: TYK2 JH2 Domain Binding Assay (KINOMEscan). The conditions noted are these: Table 4, JH2 binding assay; read-out: JH2 Kd.
Sequence of human TYK2 (JH2domain-pseudokinase) (P29597 556-888): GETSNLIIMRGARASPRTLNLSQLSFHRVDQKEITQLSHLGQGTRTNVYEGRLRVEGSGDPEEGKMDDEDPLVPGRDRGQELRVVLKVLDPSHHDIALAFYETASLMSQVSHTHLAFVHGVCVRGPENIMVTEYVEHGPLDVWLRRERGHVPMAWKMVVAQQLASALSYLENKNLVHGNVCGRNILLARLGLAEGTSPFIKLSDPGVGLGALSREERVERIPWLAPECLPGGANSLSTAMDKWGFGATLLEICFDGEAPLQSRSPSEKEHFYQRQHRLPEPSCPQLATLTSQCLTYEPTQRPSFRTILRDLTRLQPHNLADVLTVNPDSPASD

In the case of `COc1cc(C(=O)N2CCOCC2)ccc1Nc1cc(NC(=O)C2CC2)nc2[nH]n(C)c(=O)c12` [Compound I-71, N-(4-((2-methoxy-4-(morpholine-4-carbonyl)phenyl)amino)-2-methyl-3-oxo-2,3-dihydro-1H-pyrazolo[3,4-b]pyridin-6-yl)cyclopropanecarboxamide], the Kd lay within 0.5 to 1 nM.
Turning to `COc1cc(CO)ccc1Nc1cc(Nc2cccc(C(F)(F)F)n2)nc2[nH]n(C)c(=O)c12` [Compound I-72, 4-((4-(hydroxymethyl)-2-methoxyphenyl)amino)-2-methyl-6-((6-(trifluoromethyl)pyridin-2-yl)amino)-1,2-dihydro-3H-pyrazolo[3,4-b]pyridin-3-one], the dissociation constant (Kd) was in the range of 1 to 10 nM.
For the molecule `COc1c(F)cccc1Nc1cc(Nc2cc(C)c(F)cn2)nc2[nH]n(C)c(=O)c12` [Compound I-73, 4-((3-fluoro-2-methoxyphenyl)amino)-6-((5-fluoro-4-methylpyridin-2-yl)amino)-2-methyl-1,2-dihydro-3H-pyrazolo[3,4-b]pyridin-3-one], the dissociation constant Kd was 1 to 10 nM.
For `COc1c(F)cccc1Nc1cc(Nc2cc(C)nc(C)n2)nc2[nH]n(C)c(=O)c12` [Compound I-74, 6-((2,6-dimethylpyrimidin-4-yl)amino)-4-((3-fluoro-2-methoxyphenyl)amino)-2-methyl-1,2-dihydro-3H-pyrazolo[3,4-b]pyridin-3-one] the value was 0.1 to 0.5 nM; for `COc1c(F)cccc1Nc1cc(Nc2ccc(C)nn2)nc2[nH]n(C)c(=O)c12` [Compound I-75, 4-((3-fluoro-2-methoxyphenyl)amino)-2-methyl-6-((6-methylpyridazin-3-yl)amino)-1,2-dihydro-3H-pyrazolo[3,4-b]pyridin-3-one], 0.1 to 0.5 nM; for `COCc1ccnc(Nc2cc(Nc3cccc(F)c3OC)c3c(=O)n(C)[nH]c3n2)c1` [Compound I-76, 4-((3-fluoro-2-methoxyphenyl)amino)-6-((4-(methoxymethyl)pyridine-2-yl)amino)-2-methyl-1,2-dihydro-3H-pyrazolo[3,4-b]pyridin-3-one], 1 to 10 nM.
For `COc1c(F)cccc1Nc1cc(Nc2ccc(N3CCCCC3)cn2)nc2[nH]n(C)c(=O)c12` [Compound I-77, 4-((3-fluoro-2-methoxyphenyl)amino)-2-methyl-6-((5-(piperidin-1-yl)pyridin-2-yl)amino)-1,2-dihydro-3H-pyrazolo[3,4-b]pyridin-3-one] the value was 1 to 10 nM.
Turning to `COc1c(F)cccc1Nc1cc(Nc2ccn(C)n2)nc2[nH]n(C)c(=O)c12` [Compound I-78, 4-((3-fluoro-2-methoxyphenyl)amino)-2-methyl-6-((1-methyl-1H-pyrazol-3-yl)amino)-1,2-dihydro-3H-pyrazolo[3,4-b]pyridin-3-one], the equilibrium dissociation constant (Kd) lay within 1 to 10 nM.
For `COc1c(F)cccc1Nc1cc(Nc2ccc(C#N)cn2)nc2[nH]n(C)c(=O)c12` [Compound I-79, 6-((4-((3-fluoro-2-methoxyphenyl)amino)-2-methyl-3-oxo-2,3-dihydro-1H-pyrazolo[3,4-b]pyridin-6-yl)amino)nicotinonitrile] the value was 1 to 10 nM; for `COc1c(F)cccc1Nc1cc(Nc2ccccn2)nc2[nH]n(C)c(=O)c12` [Compound I-80, 4-((3-fluoro-2-methoxyphenyl)amino)-2-methyl-6-(pyridin-2-ylamino)-1,2-dihydro-3H-pyrazolo[3,4-b]pyridin-3-one], 1 to 10 nM; for `COc1c(F)cccc1Nc1cc(Nc2cccc(C#N)n2)nc2[nH]n(C)c(=O)c12` [Compound I-81, 6-((4-((3-fluoro-2-methoxyphenyl)amino)-2-methyl-3-oxo-2,3-dihydro-1H-pyrazolo[3,4-b]pyridin-6-yl)amino)picolinonitrile], 0.1 to 0.5 nM.
Consider `COc1cc(C(=O)N2CCC2)ccc1Nc1cc(NC(=O)C2CC2)nc2[nH]n(C)c(=O)c12` [Compound I-82, N-(4-((4-(azetidine-1-carbonyl)-2-methoxyphenyl)amino)-2-methyl-3-oxo-2,3-dihydro-1H-pyrazolo[3,4-b]pyridin-6-yl)cyclopropanecarboxamide], for which the Kd was in the range of 0.1 to 0.5 nM.
Under `COc1c(F)cccc1Nc1cc(Nc2cc(C)ccn2)nc2[nH]n(C)c(=O)c12` [Compound I-83, 4-((3-fluoro-2-methoxyphenyl)amino)-2-methyl-6-((4-methylpyridin-2-yl)amino)-1,2-dihydro-3H-pyrazolo[3,4-b]pyridin-3-one] stands 1 to 10 nM.
Turning to `COc1c(F)cccc1Nc1cc(Nc2ccc(C)cn2)nc2[nH]n(C)c(=O)c12` [Compound I-84, 4-((3-fluoro-2-methoxyphenyl)amino)-2-methyl-6-((5-methylpyridin-2-yl)amino)-1,2-dihydro-3H-pyrazolo[3,4-b]pyridin-3-one], the Kd is 1 to 10 nM.
As to `COc1c(F)cccc1Nc1cc(Nc2cncc(C#N)n2)nc2[nH]n(C)c(=O)c12` [Compound I-85, 6-((4-((3-fluoro-2-methoxyphenyl)amino)-2-methyl-3-oxo-2,3-dihydro-1H-pyrazolo[3,4-b]pyridin-6-yl)amino)pyrazine-2-carbonitrile], the Kd lay within 0.5 to 1 nM.
Regarding `COc1c(F)cccc1Nc1cc(Nc2cccc(C(F)(F)F)n2)nc2[nH]n(C)c(=O)c12` [Compound I-86, 4-((3-fluoro-2-methoxyphenyl)amino)-2-methyl-6-((6-(trifluoromethyl)pyridin-2-yl)amino)-1,2-dihydro-3H-pyrazolo[3,4-b]pyridin-3-one], the Kd fell in the range of 1 to 10 nM.
With `COc1c(F)cccc1Nc1cc(Nc2cccc(C3CC3)n2)nc2[nH]n(C)c(=O)c12` [Compound I-87, 6-((6-cyclopropylpyridin-2-yl)amino)-4-((3-fluoro-2-methoxyphenyl)amino)-2-methyl-1,2-dihydro-3H-pyrazolo[3,4-b]pyridin-3-one], the Kd lay within 1 to 10 nM.
For `COc1c(Nc2cc(NC(=O)C3CC3)nc3[nH]n(C)c(=O)c23)cccc1N1CCCC1=O` [Compound I-88, N-(4-((2-methoxy-3-(2-oxopyrrolidin-1-yl)phenyl)amino)-2-methyl-3-oxo-2,3-dihydro-1H-pyrazolo[3,4-b]pyridin-6-yl)cyclopropanecarboxamide], the Kd was in the range of 1 to 10 nM.
`COc1c(F)cccc1Nc1cc(Nc2ccc(N3CCOCC3)cn2)nc2[nH]n(C)c(=O)c12` [Compound I-89, 4-((3-fluoro-2-methoxyphenyl)amino)-2-methyl-6-((5-morpholinopyridin-2-yl)amino)-1,2-dihydro-3H-pyrazolo[3,4-b]pyridin-3-one]: the Kd lay in the range of 1 to 10 nM.
Under `COc1c(F)cccc1Nc1cc(Nc2ccc(N3CCCC3)cn2)nc2[nH]n(C)c(=O)c12` [Compound I-90, 4-((3-fluoro-2-methoxyphenyl)amino)-2-methyl-6-((5-(pyrrolidin-1-yl)pyridin-2-yl)amino)-1,2-dihydro-3H-pyrazolo[3,4-b]pyridin-3-one] stands greater than 10 nM.
Turning to `COc1c(F)cccc1Nc1cc(Nc2ccc(C3CC3)cn2)nc2[nH]n(C)c(=O)c12` [Compound I-91, 6-((5-cyclopropylpyridin-2-yl)amino)-4-((3-fluoro-2-methoxyphenyl)amino)-2-methyl-1,2-dihydro-3H-pyrazolo[3,4-b]pyridin-3-one], the equilibrium dissociation constant (Kd) is 1 to 10 nM.
For `COCc1ccc(Nc2cc(Nc3ccc(C(=O)N4CCCC4)c(C(F)(F)F)n3)nc3[nH]n(C)c(=O)c23)c(OC)c1` [Compound I-92, 4-((2-methoxy-4-(methoxymethyl)phenyl)amino)-2-methyl-6-((5-(pyrrolidine-1-carbonyl)-6-(trifluoromethyl)pyridin-2-yl)amino)-1,2-dihydro-3H-pyrazolo[3,4-b]pyridin-3-one] the value was 0.1 to 0.5 nM; for `COCc1ccc(Nc2cc(Nc3ccc(C)c(C(F)(F)F)n3)nc3[nH]n(C)c(=O)c23)c(OC)c1` [Compound I-93, 4-((2-methoxy-4-(methoxymethyl)phenyl)amino)-2-methyl-6-((5-methyl-6-(trifluoromethyl)pyridin-2-yl)amino)-1,2-dihydro-3H-pyrazolo[3,4-b]pyridin-3-one], 1 to 10 nM.
Turning to `COc1c(F)cccc1Nc1cc(Nc2cccc(N3CC(OC)C3)n2)nc2[nH]n(C)c(=O)c12` [Compound I-94, 4-((3-fluoro-2-methoxyphenyl)amino)-6-((6-(3-methoxyazetidin-1-yl)pyridin-2-yl)amino)-2-methyl-1,2-dihydro-3H-pyrazolo[3,4-b]pyridin-3-one], the Kd fell in the range of 1 to 10 nM.
Regarding `COc1c(Cl)cccc1Nc1cc(Nc2cc(C)c(F)cn2)nc2[nH]n(C)c(=O)c12` [Compound I-95, 4-((3-chloro-2-methoxyphenyl)amino)-6-((5-fluoro-4-methylpyridin-2-yl)amino)-2-methyl-1,2-dihydro-3H-pyrazolo[3,4-b]pyridin-3-one], the Kd was in the range of 1 to 10 nM.
As to `COc1c(Cl)cccc1Nc1cc(Nc2cc(C)nc(C)n2)nc2[nH]n(C)c(=O)c12` [Compound I-96, 4-((3-chloro-2-methoxyphenyl)amino)-6-((2,6-dimethylpyrimidin-4-yl)amino)-2-methyl-1,2-dihydro-3H-pyrazolo[3,4-b]pyridin-3-on], the Kd fell in the range of 0.1 to 0.5 nM.
Under `COCc1ccnc(Nc2cc(Nc3cccc(Cl)c3OC)c3c(=O)n(C)[nH]c3n2)c1` [Compound I-97, 4-((3-chloro-2-methoxyphenyl)amino)-6-((4-(methoxymethyl)pyridin-2-yl)amino)-2-methyl-1,2-dihydro-3H-pyrazolo[3,4-b]pyridin-3-one] stands 0.5 to 1 nM; under `COc1c(Cl)cccc1Nc1cc(Nc2ccc(C#N)cn2)nc2[nH]n(C)c(=O)c12` [Compound I-98, 6-((4-((3-chloro-2-methoxyphenyl)amino)-2-methyl-3-oxo-2,3-dihydro-1H-pyrazolo[3,4-b]pyridin-6-yl)amino)nicotinonitrile], 0.5 to 1 nM.
For `COc1c(Cl)cccc1Nc1cc(Nc2cccc(C#N)n2)nc2[nH]n(C)c(=O)c12` [Compound I-99, 6-((4-((3-chloro-2-methoxyphenyl)amino)-2-methyl-3-oxo-2,3-dihydro-1H-pyrazolo[3,4-b]pyridin-6-yl)amino)picolinonitrile], the Kd is 0.5 to 1 nM.
For `[2H]C([2H])([2H])n1[nH]c2nc(NC(=O)C3CC3)cc(Nc3cccc(-c4nnn(C)n4)c3OC)c2c1=O` [Compound I-100] the value was less than 0.1 nM.
